The source of these data is patent publication US8586638B2, “Parakeratosis inhibitor and skin preparation for external use” (priority 2003, dated 2013).

The subject of experiment [1] is parakeratosis and skin roughness caused by oleic acid on the back of hairless mice. In words: Parakeratosis inhibition effect test: oleic acid applied to the back of hairless mice, visual skin roughness and parakeratosis level. Type of experiment: in vivo, hairless mice (HR-1). Also on record: key to Evaluation Visual (mean of 4 mice), skin roughness: 0.0 = no roughness, 2.0 = control application; 0.25 steps. To be noted: for Evaluation Parakeratosis (mean of 4 mice) / Evaluation Visual (mean of 4 mice), skin roughness: Table 4; for Evaluation Parakeratosis (mean of 4 mice): control 2.0; for Evaluation Visual (mean of 4 mice), skin roughness: score 0.0 no roughness, 2.0 control; for effect of inhibiting parakeratosis (conclusion from Table 4): hairless mice, oleic acid, fourth embodiment. The protocol:
A 3 weight % water solution (including 30 weight % ethanol) was prepared as the evaluation specimen of the glycine derivatives in accordance with the invention 1. The pH was regulated to the range between 7.0 to 7.5, by using hydrochloric acid and sodium hydroxide. When the solubility was low, the solution was adjusted accordingly.
100 microliters of 10 weight % oleic acid (solvent: ethanol) was applied to the back of hairless mice (HR-1, Hoshino laboratory animals). Thereafter, 100 microliters of sample solution was applied (glycine derivatives in accordance with said invention 1) at each time. This procedure was repeated for 3 days. The day after the application, the skin condition of the backs was observed by using a CCD camera to evaluate the skin roughness (stratified ablation of the skin surface stratum corneum and red spots). The skin condition was evaluated visually, with scoring the skin condition of control application to 2.0 and the skin condition of no roughness to 0.0, in a 0.25 point step in response to the skin condition. At the same time, the skin surface stratum corneum of the back of hairless mice was peeled off by using a tape for staining the nucleus with haematoxylin to observe the degrees of parakeratosis (parakeratosis level) and evaluate in 0.25 step in the range from 1.0 to 3.0. The higher evaluation points indicates the larger number of parakeratotic corneocytes count, i.e., severer parakeratosis.
The samples to be evaluated of the glycine derivatives and the salts thereof as well as the aminosulfuric acid derivatives and the salts thereof in accordance with the invention 2 were prepared mainly 3 weight % solution (including 30 weight % ethanol, excluding Hydantoic acid and ACES which include 20 weight % ethanol). pH was regulated by using hydrochloric acid or sodium hydroxide to be 7.0 to 7.5. When the solubility was low, then the solution was prepared accordingly.
100 microliters of 10 weight % oleic acid (solvent: ethanol) was applied to the back of Hairless mice (HR-1, Hoshino laboratory animals) Thereafter, 100 microliters of sample solution (glycine derivatives in accordance with the invention 2) was applied thereon at each time. This procedure was repeated for 3 days. The day after the application, the skin condition of the backs was observed by using a CCD camera to evaluate the skin roughness (stratified ablation of the skin surface stratum corneum and red spots). The skin condition was evaluated visually, with scoring the skin condition of control application to 2.0 and the skin condition of no roughness to 0.0, in a 0.25 point step in response to the skin condition. At the same time, the skin surface stratum corneum of the back of hairless mice was peeled off by using a tape for staining the nucleus with haematoxylin to observe the degrees of parakeratosis and evaluate in 0.25 step in the range from 1.0 to 3.0. The higher evaluation points indicates the larger number of parakeratotic corneocytes count, i.e., severer parakeratosis.

For experiment [2], the system named is pores on the cheek of healthy male subjects. In words: Effect of shrinking human pores: replica evaluation of cheek pores. The class given is in vivo. To be noted: for Replica Evaluation (mean of n = 5), difference of pore size score before/after application: Table 5, twice a day for a month, cheek, control 0.3; for effect of pore-shrinking (conclusion from Table 5): human cheek, fifth embodiment. On the procedure:
An experiment of application of sample twice a day for a month on the cheek of healthy male subjects, was conducted with each group consisting of 5 individuals. 3 weight % solution of the glycine derivatives in accordance with the invention 1 (including 15 weight % of ethanol) was prepared. pH was regulated to the range between 7.0 and 7.5, by using hydrochloric acid and/or sodium hydroxide. Control was 15 weight % ethanol solution. Said 3 weight % solution was applied to one side and said control solution was applied to the other side.
Replicas were prepared prior to and after the application to observe the change of form of pores in the same spot under a three-dimensional laser scanning microscope. The size of pores was evaluated visually 13 steps from 1 to 13 (larger number indicates larger pore size), and the difference between the resulted evaluations before/after the application experiment was then calculated to study the effectiveness of each specimen.
An experiment of application of sample twice a day for a month on the cheek of healthy male subjects, was conducted with each group consisting of 5 individuals. 3 weight % solution of the glycine derivatives and the salts thereof as well as the aminosulfuric acid derivatives and the salts thereof in accordance with the invention 2 (including 15 weight % of ethanol), 2 weight % solution of ACES (including 15 weight % of ethanol), 3 weight % solution of CAPS (including 15 weight % of ethanol), and 3 weight % solution of CAPSO (including 15 weight % of ethanol) were prepared. pH was regulated to the range between 7.0 and 7.5, by using hydrochloric acid and/or sodium hydroxide. 15 weight % ethanol solution was used as control. Said sample solutions was applied to one side, and said control solution was applied to the other side.

Experiment [3] concerns skin roughness caused by oleic acid on the back of hairless mice. In words: Inhibitory effect on skin roughness by the application of oleic acid (TEWL value). The class given is in vivo, hairless mice (HR-1). Also noted: ΔTEWL: unit not given here. The conditions noted are these: for decrease of delta-TEWL value as compared to the control solution (conclusion from Table 6): hairless mice, oleic acid, seventh embodiment; for ΔTEWL: after 10 weight % oleic acid, 3 days, four mice per group, control 12.0. The protocol:
To study the inhibitory effect on the skin roughness by the application of oleic acid by the glycine derivatives and the salts thereof as well as the aminosulfuric acid derivatives and the salts thereof in accordance with the invention 2, the […] (TEWL value) before and after the application was measured to compare the difference therebetween with the value of control (control solution) in order to determine the effect. The preparation of samples and the application procedure were in accordance with the embodiment 4. The TEWL value was measured by means of TEWA meter TM210 (Courage+Khazaka Inc.).
100 microliters of 10 weight % oleic acid (solvent: ethanol) was applied to the back of hairless mice (HR-1, four in each group). Thereafter, 100 microliters of sample solutions (glycine derivatives and the salts thereof as well as the aminosulfuric acid derivatives and the salts thereof) in accordance with the invention 2 were applied at each time. This procedure was repeated for 3 days. The day after the application, TEWL value of the back of mice was measured and the values were averaged. The larger delta-TEWL value indicates severer aggravation of skin roughness.

The mark [4] stands for this setting: sample 3 weight % in aqueous 30 weight % ethanol (hydantoic acid: 20 weight % ethanol), range 1.0 to 3.0, higher = severer.
The mark [5] stands for this setting: sample 3 weight % in aqueous 30 weight % ethanol (hydantoic acid: 20 weight % ethanol).
The mark [6] stands for this setting: 3.0 weight % solution (15 weight % ethanol).
Setting [7] is: sample 3 weight %, larger = severer roughness.

Structures are written as SMILES.

Take `NC(=O)CNCCS(=O)(=O)O` [ACES, N-(2-acetamide)-2-aminoethanesulfonic acid]: in experiment [1] (sample 1 weight % in aqueous 30 weight % ethanol (ACES: 20 weight % ethanol), range 1.0 to 3.0), the “Evaluation Parakeratosis (mean of 4 mice)” value (“Evaluation Parakeratosis” below) is reported as 1.2. Also, in experiment [1] (sample 1 weight % in aqueous 30 weight % ethanol (ACES: 20 weight % ethanol)), the “Evaluation Visual (mean of 4 mice), skin roughness” value (from here on “Evaluation Visual (mean of 4 mice)”) was found to be 1.4. Also, in experiment [1], the “effect of inhibiting parakeratosis (conclusion from Table 4)” value (“effect of inhibiting parakeratosis” for short) was “have the effect of inhibiting parakeratosis”. Moreover, in experiment [2] (2.0 weight % solution (15 weight % ethanol)), the “Replica Evaluation (mean of n = 5), difference of pore size score before/after application” value is −1.5. For the same molecule, the “effect of pore-shrinking (conclusion from Table 5)” value (“effect of pore-shrinking” for short) in experiment [2] is reported as “demonstrated the effect of pore-shrinking”. Further, in experiment [3], the “decrease of delta-TEWL value as compared to the control solution (conclusion from Table 6)” value (shortened to “decrease of delta-TEWL value”) was “significant decrease of delta-TEWL value”. In addition, in experiment [3] (sample 1 weight %), the ΔTEWL is listed as 6.9.

Turning to `O=S(=O)(O)CCCNC1CCCCC1` [CAPS, 3-(cyclohexyl-amino)propane sulfonic acid], in experiment [1] (setting [4]), the “Evaluation Parakeratosis” value came to 1.2. The “Evaluation Visual (mean of 4 mice)” value in experiment [1] (setting [5]) was determined as 1.3. For the same molecule, the “effect of inhibiting parakeratosis” value in experiment [1] is recorded as “have the effect of inhibiting parakeratosis”. Moreover, in experiment [2] (setting [6]), the “Replica Evaluation (mean of n = 5), difference of pore size score before/after application” value is −1.4. The “effect of pore-shrinking” value in experiment [2] is reported as “demonstrated the effect of pore-shrinking”. In experiment [3], the “decrease of delta-TEWL value” value is on record as “significant decrease of delta-TEWL value”. This molecule came in with a ΔTEWL in experiment [3] (setting [7]) of 8.1.

As for `O=S(=O)(O)CC(O)CNC1CCCCC1` (centres unmarked) [CAPSO, 3-(cyclohexyl-amino)-2-hydroxy-propane-sulfonic acid], the “Evaluation Parakeratosis” value in experiment [1] (setting [4]) came to 1.1. Moreover, the “Evaluation Visual (mean of 4 mice)” value in experiment [1] (setting [5]) amounted to 1.3. The “effect of inhibiting parakeratosis” value in experiment [1] is “have the effect of inhibiting parakeratosis”. In addition, in experiment [2] (setting [6]), the “Replica Evaluation (mean of n = 5), difference of pore size score before/after application” value is −1.6. In experiment [2], the “effect of pore-shrinking” value was “demonstrated the effect of pore-shrinking”. Further, the “decrease of delta-TEWL value” value in experiment [3] is recorded as “significant decrease of delta-TEWL value”. Further, in experiment [3] (setting [7]), the ΔTEWL is 7.9.

For `O=C(O)CNc1ccccc1` [N-phenylglycine], the “Evaluation Parakeratosis” value in experiment [1] (setting [4]) is listed as 1.2. Besides, the “Evaluation Visual (mean of 4 mice)” value in experiment [1] (setting [5]) was 1.3. In addition, in experiment [1], the “effect of inhibiting parakeratosis” value is “have the effect of inhibiting parakeratosis”. Besides, in experiment [2] (setting [6]), the “Replica Evaluation (mean of n = 5), difference of pore size score before/after application” value is recorded as −1.0. Moreover, the “effect of pore-shrinking” value in experiment [2] is listed as “demonstrated the effect of pore-shrinking”. Also, the “decrease of delta-TEWL value” value in experiment [3] is recorded as “significant decrease of delta-TEWL value”. The ΔTEWL in experiment [3] (setting [7]) turned out to be 7.9.

Take `NC(=O)NCC(=O)O` [hydantoic acid]: in experiment [1] (setting [4]), the “Evaluation Parakeratosis” value is 1.3. In addition, the “Evaluation Visual (mean of 4 mice)” value in experiment [1] (setting [5]) came to 1.4. Also, the “effect of inhibiting parakeratosis” value in experiment [1] was “have the effect of inhibiting parakeratosis”. The “Replica Evaluation (mean of n = 5), difference of pore size score before/after application” value in experiment [2] (setting [6]) was −0.8. In addition, in experiment [2], the “effect of pore-shrinking” value is listed as “demonstrated the effect of pore-shrinking”. Also, the “decrease of delta-TEWL value” value in experiment [3] is on record as “significant decrease of delta-TEWL value”. For the same molecule, the ΔTEWL in experiment [3] (setting [7]) was 8.0.
